Publication PMC6522510 (Nature Communications, 2019)
Structures can show the parent of a compound that is named as a salt. Where two headings read alike, the source gives them in different places.

Columns and labels:
Design in all cases: species or system AML cell lines (8); Primary HTS, single concentration about 10 uM, Cell Titer Glo viability; log10 luminescence, per cent inhibition relative to cycloheximide control
Conditions in all cases: 72 h, relative to cycloheximide control, log10 luminescence, inhibitor
CHRF288-11 = tested on: CHRF288-11
CMK = tested on: CMK
CMS = tested on: CMS
M07e = tested on: M07e
ML-2 = tested on: ML-2
MOLM-13 = tested on: MOLM-13
MV4-11 = tested on: MV4-11
U937 = tested on: U937

SMILES	CHRF288-11 %inh (CHRF288-11)	CMK %inh (CMK)	CMS %inh (CMS)	M07e %inh (M07e)	ML-2 %inh (ML-2)	MOLM-13 %inh (MOLM-13)	MV4-11 %inh (MV4-11)	U937 %inh (U937)	CHRF288-11 %inh (CHRF288-11; CHRF288-11 %inh, 10 µM)	CMK %inh (CMK; CMK %inh, 10 µM)	CMS %inh (CMS; CMS %inh, 10 µM)	M07e %inh (M07e; M07e %inh, 10 µM)	ML-2 %inh (ML-2; ML-2 %inh, 10 µM)	MOLM-13 %inh (MOLM-13; MOLM-13 %inh, 10 µM)	MV4-11 %inh (MV4-11; MV4-11 %inh, 10 µM)	U937 %inh (U937; U937 %inh, 10 µM)
CCCCC[C@](C)(O)/C=C/[C@@H]1[C@@H](C/C=C\CCCC(=O)O)[C@@H](O)C[C@H]1O [SJ000565165-1, CARBOPROST TROMETHAMINE]	21.89%	-7.865%	2.5%	-0.103%	2.687%	2.726%	1.156%	-1.422%	–	–	–	–	–	–	–	–
CCN(CC)CCOC(=O)c1ccc(N)cc1Cl [SJ000565166-1, CHLOROPROCAINE HYDROCHLORIDE]	2.414%	-4.183%	-2.449%	-0.3142%	1.664%	5.209%	1.062%	-1.434%	–	–	–	–	–	–	–	–
CCCCCCCCCCCCCCCCCCCCCCO [SJ000565168-1, 1-DOCOSANOL (BEHENYL ALCOHOL)]	5.263%	-5.554%	-0.803%	3.056%	-0.3569%	-4.024%	-0.7251%	-0.3827%	–	–	–	–	–	–	–	–
CO/N=C(\C(=O)N[C@@H]1C(=O)N2C(C(=O)O)=CCS[C@H]12)c1csc(N)n1 [SJ000565169-1, CEFTIZOXIME SODIUM]	-3.529%	-4.179%	-3.365%	1.196%	-0.7534%	-3.581%	-0.08777%	-0.2552%	–	–	–	–	–	–	–	–
CC1(C)O[C@@H]2C[C@H]3[C@@H]4CCC5=CC(=O)C=C[C@]5(C)[C@H]4[C@@H](O)C[C@]3(C)[C@]2(C(=O)CO)O1 [SJ000565170-1, DESONIDE]	6.238%	3.484%	1.425%	8.441%	-0.7887%	5.492%	0.7481%	6.18%	–	–	–	–	–	–	–	–
CC=CC1=C(C(=O)O)N2C(=O)[C@@H](NC(=O)[C@H](N)c3ccc(O)cc3)[C@H]2SC1 [SJ000565172-1, CEFPROZIL]	–	–	–	–	–	–	–	–	-2.763%	-2.483%	-1.599%	-0.1553%	-0.9482%	3.181%	3.254%	0.9255%
CC=CC1=C(C(=O)O)N2C(=O)[C@@H](NC(=O)[C@H](N)c3ccc(O)cc3)[C@H]2SC1 [SJ000565172-2, CEFPROZIL]	–	–	–	–	–	–	–	–	-7.818%	1.641%	-3.774%	-4.985%	-1.058%	0.07702%	1.013%	-2.74%
CC=CC1=C(C(=O)O)N2C(=O)[C@@H](NC(=O)[C@H](N)c3ccc(O)cc3)[C@H]2SC1 [SJ000565172-3, CEFPROZIL]	–	–	–	–	–	–	–	–	-2.278%	-7.257%	0.3567%	-2.148%	-1.603%	-1.663%	-2.606%	-1.915%
C#C[C@]1(O)CC[C@H]2[C@@H]3CCC4=CCCC[C@@H]4[C@H]3C(=C)C[C@@]21CC [SJ000565174-1, DESOGESTREL]	1.152%	2.427%	2.249%	3.523%	3.09%	0.3348%	4.001%	2.771%	–	–	–	–	–	–	–	–
COc1ccc2cc1Oc1cc3c(cc1OC)CC[N+](C)(C)[C@H]3Cc1ccc(cc1)Oc1c(OC)c(OC)cc3c1[C@@H](C2)[N+](C)(C)CC3 [SJ000565179-1, METOCURINE IODIDE]	0.972%	-2.411%	-2.545%	-0.367%	-0.842%	0.1471%	1.51%	-0.03863%	–	–	–	–	–	–	–	–
CCOC(=O)C(C)Oc1cccc2c(=O)n(CC(=O)Nc3ccc4c(c3)OCCO4)ccc12 (stereo not shown) [SJ000565608-2, SID 7969543]	4.074%	1.565%	-1.631%	-1.631%	3.909%	1.293%	2.255%	-0.5022%	–	–	–	–	–	–	–	–
COc1ccc(-c2ccc3c(N4CCOC[C@@H]4C)nc(N4CCOC[C@@H]4C)nc3n2)cc1CO [SJ000571306-4, 1009298-09-2 | AZD8055 | | AZD8055]	63.41%	103.1%	58.27%	41.99%	20%	34.83%	44.46%	53.04%	–	–	–	–	–	–	–	–
Cc1ccccc1-n1c(Cn2cnc3c(N)ncnc32)nc2cccc(C)c2c1=O [SJ000571308-2, IC-87114 | PIK 293]	10.49%	-7.948%	-0.8579%	-1.447%	1.318%	2.064%	3.81%	0.4255%	–	–	–	–	–	–	–	–
Fc1cccc(COc2ccc(Nc3ncnc4sc(-c5ccco5)cc34)cc2Cl)c1 [SJ000573002-1, U22476/39/2]	-4.95%	-2.703%	0.3499%	-3.433%	0.9644%	-2.902%	-1.439%	0.5844%	–	–	–	–	–	–	–	–
COc1cc2ncn(-c3cc(O[C@@H](C)c4ccccc4Cl)c(C(N)=O)s3)c2cc1OC [SJ000573003-1, U20723/53/1 | U20723/56/1]	52.73%	79.08%	40.55%	89.94%	43.99%	83.64%	67.89%	74.14%	–	–	–	–	–	–	–	–
COc1cc2ncn(-c3cc(O[C@H](C)c4ccccc4Cl)c(C(N)=O)s3)c2cc1OC [SJ000573003-2, U20723/53/1 | U20723/56/1]	41.02%	110.4%	80.13%	88.84%	11.11%	108.1%	78.95%	82.96%	–	–	–	–	–	–	–	–
CS(=O)(=O)CCNCc1ccc(-c2ccc3ncnc(Nc4ccc(OCc5ccccc5)c(Cl)c4)c3c2)o1 [SJ000573004-1, U12816/179/1]	2.861%	1.726%	-1.14%	-1.936%	2.349%	-1.767%	1.075%	-2.727%	–	–	–	–	–	–	–	–
[O-][S+]1CCN(Cc2ccc(-c3ccc4ncnc(Nc5ccc(OCc6cccc(F)c6)c(Cl)c5)c4c3)o2)CC1 [SJ000573006-1, U16708/127/1]	12.8%	4.042%	4.852%	-1.786%	0.7137%	-0.7641%	-1.095%	-0.3031%	–	–	–	–	–	–	–	–
CCS(=O)(=O)c1ccc(OC)c(Nc2ncc(-c3cccc(F)c3)o2)c1 [SJ000573008-1, U15747/41/2]	-0.1874%	0.9043%	0.7614%	1.435%	0.9608%	34.16%	41.43%	1.214%	–	–	–	–	–	–	–	–
COc1cc(Nc2ncc(-c3ccccc3)o2)cc(OC)c1OC [SJ000573009-1, U21834/26/1]	41.65%	106.1%	12.03%	25.07%	46.26%	93.46%	70.39%	48.56%	–	–	–	–	–	–	–	–
